Assay [1] relates to KB/V. Briefly: Partial reversal of human P-glycoprotein-mediated multidrug resistance in human KB/V cells as reduction of vincristine IC50 at 10 uM. Type of assay: cell-based.
In another assay the test system is KB. Briefly: Cytotoxicity against human KB cells. It counts as functional, cell-based.
Assay [2] relates to KB/V. Description: Reversal of human P-glycoprotein-mediated multidrug resistance in human KB/V cells as reduction of vincristine IC50 at 10 uM. Type of assay: cell-based.
The test system of assay [3] is KB/V. Briefly: Ratio of compound reversal of P-glycoprotein-mediated multidrug resistance to verapamil reversal of P-glycoprotein-mediated multidrug resistance in human KB/V cells. Type of assay: cell-based.

Active and inactive are the calls of the source. No cut-off for these calls is given here.

Regarding `C=C1[C@@H](OC(=O)c2cccnc2)CC[C@@]2(C)C[C@H](OC(C)=O)C3=C(C)C(=O)C[C@@H]([C@@H](OC(C)=O)[C@H]12)C3(C)C`, the outcome in the assay on KB/V [1] was Active. In addition, the result in the assay with KB was inactive.
For the compound `C=C1[C@@H](OC(=O)/C=C\c2ccco2)CC[C@@]2(C)C[C@H](OC(C)=O)C3=C(C)CC[C@@H]([C@@H](OC(C)=O)[C@H]12)C3(C)C`, the result in the assay with KB/V [2] and in the assay on KB was inactive.
Consider `C=C1[C@@H](OC(=O)CCc2ccccc2)CC[C@@]2(C)C[C@H](OC(C)=O)C3=C(C)CC[C@@H]([C@@H](OC(C)=O)[C@H]12)C3(C)C`, for which the result with KB/V [2] and in the assay on KB was inactive.
For the compound `C=C1[C@@H](OC(=O)Cc2cccc3ccccc23)CC[C@@]2(C)C[C@H](OC(C)=O)C3=C(C)C(=O)C[C@@H]([C@@H](OC(C)=O)[C@H]12)C3(C)C`, the outcome in the assay on KB/V [2] and with KB was inactive.
In the case of `C=C1[C@@H](OC(=O)[C@@H]2CCCN2)CC[C@@]2(C)C[C@H](OC(C)=O)C3=C(C)C(=O)CC([C@@H](OC(C)=O)[C@H]12)C3(C)C` (single isomer, unassigned), the outcome with KB/V [2] was Active. In the assay on KB, the result was inactive. Further, in the assay on KB/V [3], the Ratio is 21.2.
Turning to `C=C1[C@@H](OC(=O)/C=C\c2ccco2)CC[C@@]2(C)C[C@H](OC(C)=O)C3=C(C)C(=O)C[C@@H]([C@@H](OC(C)=O)[C@H]12)C3(C)C`, the result in the assay with KB/V [2] was Active. In addition, the outcome in the assay on KB was inactive. Moreover, the Ratio in the assay with KB/V [3] amounted to 1.67.
For the compound `C=C1[C@@H](OC(=O)Cc2cccs2)CC[C@@]2(C)C[C@H](OC(C)=O)C3=C(C)CC[C@@H]([C@@H](OC(C)=O)[C@H]12)C3(C)C`, the outcome with KB/V [2] and in the assay with KB was inactive.
For `C=C1[C@@H](OC(=O)c2cccnc2)CC[C@@]2(C)C[C@H](OC(C)=O)C3=C(C)CC[C@@H]([C@@H](OC(C)=O)[C@H]12)C3(C)C`, the result in the assay on KB/V [1] was Active. Also, in the assay on KB, the outcome was inactive.
`C=C1[C@@H](OC(=O)CCCCc2ccccc2)CC[C@@]2(C)C[C@H](OC(C)=O)C3=C(C)CC[C@@H]([C@@H](OC(C)=O)[C@H]12)C3(C)C`: the outcome in the assay on KB/V [1] was Active. Also, in the assay with KB, the outcome was inactive.
In the same order, the values of `C=C1[C@@H](OC(=O)CCC2CCCCC2)CC[C@@]2(C)C[C@H](OC(C)=O)C3=C(C)C(=O)C[C@@H]([C@@H](OC(C)=O)[C@H]12)C3(C)C` are “Active” and “inactive”.
As for `C=C1[C@@H](OC(=O)CCc2cccnc2)CC[C@@]2(C)C[C@H](OC(C)=O)C3=C(C)C(=O)C[C@@H]([C@@H](OC(C)=O)[C@H]12)C3(C)C`, the outcome in the assay with KB/V [2] was Active. Besides, the outcome in the assay on KB was inactive. In the assay with KB/V [3], the Ratio turned out to be 1.42.
For `C=C1[C@@H](OC(=O)Cc2cccs2)CC[C@@]2(C)C[C@H](OC(C)=O)C3=C(C)C(=O)C[C@@H]([C@@H](OC(C)=O)[C@H]12)C3(C)C`, the outcome in the assay on KB/V [2] and with KB was inactive.
Take `C=C1[C@@H](OC(=O)COc2ccc3ccccc3c2)CC[C@@]2(C)C[C@H](OC(C)=O)C3=C(C)CC[C@@H]([C@@H](OC(C)=O)[C@H]12)C3(C)C`: the result with KB/V [1] was Active. Moreover, in the assay with KB, the result was inactive.
Regarding `COc1ccc(CCN(C)CCCC(C#N)(c2ccc(OC)c(OC)c2)C(C)C)cc1OC` (stereo not drawn), the outcome in the assay on KB/V [2] and with KB was inactive.
With `C=C1[C@@H](OC(=O)CCC(=O)O)CC[C@@]2(C)C[C@H](OC(C)=O)C3=C(C)CC[C@@H]([C@@H](OC(C)=O)[C@H]12)C3(C)C`, the outcome with KB/V [2] and in the assay on KB was inactive.
Regarding `C=C1[C@@H](OC(=O)c2ccco2)CC[C@@]2(C)C[C@H](OC(C)=O)C3=C(C)CC[C@@H]([C@@H](OC(C)=O)[C@H]12)C3(C)C`, the outcome in the assay on KB/V [2] and with KB was inactive.
Turning to `C=C1[C@@H](OC(=O)CCCc2cccs2)CC[C@@]2(C)C[C@H](OC(C)=O)C3=C(C)C(=O)C[C@@H]([C@@H](OC(C)=O)[C@H]12)C3(C)C`, the outcome in the assay with KB/V [1] was Active. Moreover, the outcome with KB was inactive.
In the case of `C=C1[C@@H](OC(=O)CCc2cccs2)CC[C@@]2(C)C[C@H](OC(C)=O)C3=C(C)C(=O)C[C@@H]([C@@H](OC(C)=O)[C@H]12)C3(C)C`, the outcome in the assay on KB/V [2] and in the assay with KB was inactive.
For `C=C1[C@@H](OC(=O)c2ccco2)CC[C@@]2(C)C[C@H](OC(C)=O)C3=C(C)C(=O)C[C@@H]([C@@H](OC(C)=O)[C@H]12)C3(C)C`, the result with KB/V [1] was Active. For the same compound, in the assay with KB, the outcome was inactive.
Regarding `C=C1[C@@H](OC(=O)/C=C/c2ccccc2)CC[C@@]2(C)C[C@H](OC(C)=O)C3=C(C)CC[C@@H]([C@@H](OC(C)=O)[C@H]12)C3(C)C`, the result with KB/V [2] and in the assay with KB was inactive.
For `C=C1[C@@H](OC(=O)Cc2ccccc2)CC[C@@]2(C)C[C@H](OC(C)=O)C3=C(C)CC[C@@H]([C@@H](OC(C)=O)[C@H]12)C3(C)C`, the result in the assay with KB/V [2] and with KB was inactive.
On to `C=C1[C@@H](OC(=O)CCC2CCCCC2)CC[C@@]2(C)C[C@H](OC(C)=O)C3=C(C)CC[C@@H]([C@@H](OC(C)=O)[C@H]12)C3(C)C`, for which the outcome in the assay with KB/V [2] and with KB was inactive.
As to `C=C1[C@@H](OC(=O)CCCCc2ccccc2)CC[C@@]2(C)C[C@H](OC(C)=O)C3=C(C)C(=O)C[C@@H]([C@@H](OC(C)=O)[C@H]12)C3(C)C`, the result in the assay with KB/V [2] and in the assay on KB was inactive.
As to `C=C1[C@@H](OC(=O)COc2ccc3ccccc3c2)CC[C@@]2(C)C[C@H](OC(C)=O)C3=C(C)C(=O)C[C@@H]([C@@H](OC(C)=O)[C@H]12)C3(C)C`, the outcome in the assay with KB/V [2] and in the assay on KB was inactive.
Regarding `C=C1[C@@H](OC(=O)CCCc2ccccc2)CC[C@@]2(C)C[C@H](OC(C)=O)C3=C(C)CC[C@@H]([C@@H](OC(C)=O)[C@H]12)C3(C)C`, the result in the assay with KB/V [2] and in the assay on KB was inactive.
In the case of `C=C1[C@@H](OC(=O)CC2CCCCC2)CC[C@@]2(C)C[C@H](OC(C)=O)C3=C(C)C(=O)C[C@@H]([C@@H](OC(C)=O)[C@H]12)C3(C)C`, the outcome in the assay with KB/V [2] was Active. For the same compound, the result in the assay with KB was inactive. Besides, in the assay with KB/V [3], the Ratio was found to be 6.6.
As for `C=C1[C@@H](OC(=O)Cc2cc(OC)ccc2OC)CC[C@@]2(C)C[C@H](OC(C)=O)C3=C(C)CC[C@@H]([C@@H](OC(C)=O)[C@H]12)C3(C)C`, the result in the assay on KB/V [2] and in the assay with KB was inactive.

For the origin of these results see ChEMBL document CHEMBL1221360, “Synthesis and structure-activity relationships of sinenxan A derivatives as multidrug resistance reversal agents” (Bioorg Med Chem Lett, 2010).
